{
  "source": "ChEMBL document CHEMBL1142181",
  "about": "“Quantitative immunoassay to measure plasma and intracellular atazanavir levels: analysis of drug accumulation in cultured T cells” (Antimicrob Agents Chemother, 2007)",
  "format_in_all_cases": "ADME, cell-based",
  "key": {"[1]": {"assay": "Ratio of intracellular drug level to extracellular drug level in CEM CCL19 cells at 2 ug/ml after 24 hrs", "settings": "human, ccrf-cem"}, "PBMC [2]": {"test_system": "PBMC", "assay": "Ratio of intracellular drug level to extracellular drug level in human PBMC at 20 ug/ml after 24 hrs"}, "[3]": {"assay": "Increase in accumulation of the drug in CEM CCL19 cells in presence of 50 uM Probenecid relative to control", "settings": "human, ccrf-cem"}, "[4]": {"assay": "Increase in accumulation of the drug in CEM CCL19 cells in presence of 50 uM Verapamil relative to control", "settings": "human, ccrf-cem"}, "PBMC [5]": {"test_system": "PBMC", "assay": "Ratio of intracellular drug level to extracellular drug level in human PBMC at 0.2 ug/ml after 24 hrs"}, "[6]": {"assay": "Ratio of intracellular drug level to extracellular drug level in CEM CCL19 cells at 20 ug/ml after 24 hrs", "settings": "human, ccrf-cem"}, "PBMC [7]": {"test_system": "PBMC", "assay": "Intracellular drug level in human PBMC at 0.2 ug/ml after 24 hrs"}, "[8]": {"assay": "Ratio of intracellular drug level to extracellular drug level in CEM CCL19 cells at 0.2 ug/ml after 24 hrs", "settings": "human, ccrf-cem"}, "[9]": {"assay": "Intracellular drug level in CEM CCL19 cells at 2 ug/ml after 24 hrs", "settings": "human, ccrf-cem"}, "PBMC [10]": {"test_system": "PBMC", "assay": "Intracellular drug level in human PBMC at 2 ug/ml after 24 hrs"}, "[11]": {"assay": "Intracellular drug level in CEM CCL19 cells at 0.2 ug/ml after 24 hrs", "settings": "human, ccrf-cem"}, "PBMC [12]": {"test_system": "PBMC", "assay": "Intracellular drug level in human PBMC at 20 ug/ml after 24 hrs"}, "[13]": {"assay": "Increase in accumulation of the drug in CEM CCL19 cells in presence of 50 uM Dipyridamole relative to control", "settings": "human, ccrf-cem"}, "[14]": {"assay": "Decrease in accumulation of the drug in CEM CCL19 cells in presence of 28 uM Nevirapine relative to control", "set-up": "scale not given: the % may be the effect or the level left", "settings": "human, ccrf-cem"}, "[15]": {"assay": "Intracellular drug level in CEM CCL19 cells at 20 ug/ml after 24 hrs", "settings": "human, ccrf-cem"}, "PBMC [16]": {"test_system": "PBMC", "assay": "Ratio of intracellular drug level to extracellular drug level in human PBMC at 2 ug/ml after 24 hrs"}, "[17]": {"assay": "Increase in accumulation of the drug in CEM CCL19 cells in presence of 24 uM Efavirenz relative to control", "settings": "human, ccrf-cem"}},
  "data": [
    {"smiles": "COC(=O)N[C@H](C(=O)N[C@@H](Cc1ccccc1)[C@@H](O)CN(Cc1ccc(-c2ccccn2)cc1)NC(=O)[C@@H](NC(=O)OC)C(C)(C)C)C(C)(C)C", "note": "[ATAZANAVIR]", "values": [
      {"measurement": "Ratio", "setting": "[1]", "value": 0.1},
      {"measurement": "Ratio", "setting": "PBMC [2]", "value": 0.602},
      {"measurement": "Activity", "setting": "[3]", "value": 25, "unit": "%"},
      {"measurement": "Activity", "setting": "[4]", "value": 70, "unit": "%"},
      {"measurement": "Ratio", "setting": "PBMC [5]", "value": 19.2},
      {"measurement": "Ratio", "setting": "[6]", "value": 0.04},
      {"measurement": "Drug uptake", "setting": "PBMC [7]", "value": 3.838, "unit": "µg/mL"},
      {"measurement": "Ratio", "setting": "[8]", "value": 0.44},
      {"measurement": "Drug uptake", "setting": "[9]", "value": 0.2049, "unit": "µg/mL"},
      {"measurement": "Drug uptake", "setting": "PBMC [10]", "value": 5.409, "unit": "µg/mL"},
      {"measurement": "Drug uptake", "setting": "[11]", "value": 0.0887, "unit": "µg/mL"},
      {"measurement": "Drug uptake", "setting": "PBMC [12]", "value": 12.048, "unit": "µg/mL"},
      {"measurement": "Activity", "setting": "[13]", "value": 125, "unit": "%"},
      {"measurement": "Activity", "setting": "[14]", "value": 50, "unit": "%"},
      {"measurement": "Drug uptake", "setting": "[15]", "value": 0.8423, "unit": "µg/mL"},
      {"measurement": "Ratio", "setting": "PBMC [16]", "value": 2.7},
      {"measurement": "Activity", "setting": "[17]", "value": 125, "unit": "%"}
    ]}
  ]
}
